Experimental data published in PubChem BioAssay (NCI).
“And” between values parts separate entries of the source, which are not always exact repeats. Identical values can stand only once.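 Results reflect a 48-hour exposure of cells in 96-well plates to compound at five concentrations. Abbreviation: GI50, concentration required for 50% inhibition of growth. TGI denotes the concentration required for complete inhibition of growth.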

Legend:
Test in all cases: NCI anticancer screen, dose series, 48 h
DMS 114 small cell lung = tested on: DMS 114 small cell lung
HOP-92 NSCLC = tested on: HOP-92 NSCLC
MOLT-4 leukemia = tested on: MOLT-4 leukemia
OVCAR-4 ovarian = tested on: OVCAR-4 ovarian
RPMI-8226 leukemia = tested on: RPMI-8226 leukemia
RXF 393 renal = tested on: RXF 393 renal
SR leukemia = tested on: SR leukemia
TK-10 renal = tested on: TK-10 renal
UO-31 renal = tested on: UO-31 renal
786-0 renal = tested on: 786-0 renal
A498 renal = tested on: A498 renal
A549 NSCLC = tested on: A549 NSCLC
ACHN renal = tested on: ACHN renal
BT-549 breast = tested on: BT-549 breast
CAKI-1 renal = tested on: CAKI-1 renal
CCRF-CEM leukemia = tested on: CCRF-CEM leukemia
COLO 205 colon = tested on: COLO 205 colon
DU-145 prostate = tested on: DU-145 prostate
EKVX NSCLC = tested on: EKVX NSCLC
HCC-2998 colon = tested on: HCC-2998 colon
HCT-116 colon = tested on: HCT-116 colon
HCT-15 colon = tested on: HCT-15 colon
HL-60(TB) leukemia = tested on: HL-60(TB) leukemia
HOP-62 NSCLC = tested on: HOP-62 NSCLC
HS 578T breast = tested on: HS 578T breast
HT29 colon = tested on: HT29 colon
IGROV1 ovarian = tested on: IGROV1 ovarian
K-562 leukemia = tested on: K-562 leukemia
KM12 colon = tested on: KM12 colon
LOX IMVI melanoma = tested on: LOX IMVI melanoma
M14 melanoma = tested on: M14 melanoma
MALME-3M melanoma = tested on: MALME-3M melanoma
MCF7 breast = tested on: MCF7 breast
MDA-MB-231 breast = tested on: MDA-MB-231 breast
MDA-MB-435 = tested on: MDA-MB-435
MDA-N = tested on: MDA-N
NCI-H226 lung = tested on: NCI-H226 lung
NCI-H23 lung = tested on: NCI-H23 lung
NCI-H460 lung = tested on: NCI-H460 lung
NCI-H522 lung = tested on: NCI-H522 lung
NCI/ADR-RES ovarian = tested on: NCI/ADR-RES ovarian
OVCAR-3 ovarian = tested on: OVCAR-3 ovarian
OVCAR-5 ovarian = tested on: OVCAR-5 ovarian
OVCAR-8 ovarian = tested on: OVCAR-8 ovarian
PC-3 prostate = tested on: PC-3 prostate
SF-268 CNS = tested on: SF-268 CNS
SF-295 CNS = tested on: SF-295 CNS
SF-539 CNS = tested on: SF-539 CNS
SK-MEL-2 melanoma = tested on: SK-MEL-2 melanoma
SK-MEL-28 melanoma = tested on: SK-MEL-28 melanoma
SK-MEL-5 melanoma = tested on: SK-MEL-5 melanoma
SK-OV-3 ovarian = tested on: SK-OV-3 ovarian
SN12C renal = tested on: SN12C renal
SNB-19 CNS = tested on: SNB-19 CNS
SNB-75 CNS = tested on: SNB-75 CNS
SW-620 colon = tested on: SW-620 colon
T-47D breast = tested on: T-47D breast
U251 CNS = tested on: U251 CNS
UACC-257 melanoma = tested on: UACC-257 melanoma
UACC-62 melanoma = tested on: UACC-62 melanoma

SMILES: CC(=O)OCC1OC(n2c(=S)n(-c3ccc(C)cc3)c(=O)c3ccccc32)C(OC(C)=O)C(OC(C)=O)C1OC(C)=O (centres undefined)
- GI50 (DMS 114 small cell lung): 41.9 µM and 90 µM
- TGI (DMS 114 small cell lung): > 100 µM
- TGI (HOP-92 NSCLC): > 100 µM
- TGI (MOLT-4 leukemia): > 100 µM
- GI50 (OVCAR-4 ovarian): 17 µM and 45.1 µM
- TGI (OVCAR-4 ovarian): 83.9 µM and > 100 µM
- TGI (RPMI-8226 leukemia): > 100 µM
- TGI (RXF 393 renal): > 100 µM
- TGI (SR leukemia): > 100 µM
- TGI (TK-10 renal): > 100 µM
- TGI (UO-31 renal): > 100 µM

SMILES: COc1ccc(C(OCC2OC(n3cnc4c(=O)n(Cc5ccccc5[N+](=O)[O-])nnc43)C(O)C2O)(c2ccccc2)c2ccc(OC)cc2)cc1 (centres undefined)
- TGI (786-0 renal): > 100 µM
- TGI (A498 renal): 34.5 µM
- TGI (A549 NSCLC): > 100 µM
- TGI (ACHN renal): 97.9 µM
- TGI (BT-549 breast): > 100 µM
- TGI (CAKI-1 renal): > 56.7 µM
- TGI (CCRF-CEM leukemia): 20.7 µM
- TGI (COLO 205 colon): 34.5 µM
- TGI (DU-145 prostate): > 100 µM
- TGI (EKVX NSCLC): > 100 µM
- TGI (HCC-2998 colon): 26.9 µM
- TGI (HCT-116 colon): 13.1 µM
- TGI (HCT-15 colon): 91.2 µM
- TGI (HL-60(TB) leukemia): 5.85 µM
- TGI (HOP-62 NSCLC): > 100 µM
- TGI (HOP-92 NSCLC): 23.2 µM
- TGI (HS 578T breast): > 94 µM
- TGI (HT29 colon): 59.1 µM
- TGI (IGROV1 ovarian): > 71.2 µM
- TGI (K-562 leukemia): > 57.4 µM
- TGI (KM12 colon): > 92.4 µM
- TGI (LOX IMVI melanoma): > 39.4 µM
- TGI (M14 melanoma): > 100 µM
- TGI (MALME-3M melanoma): 49.2 µM
- TGI (MCF7 breast): > 100 µM
- TGI (MDA-MB-231 breast): > 61.8 µM
- TGI (MDA-MB-435): > 91.4 µM
- TGI (MDA-N): 47.6 µM
- TGI (MOLT-4 leukemia): 9.57 µM
- TGI (NCI-H226 lung): 45.5 µM
- TGI (NCI-H23 lung): > 90.8 µM
- TGI (NCI-H460 lung): > 53.1 µM
- TGI (NCI-H522 lung): 48.9 µM
- TGI (NCI/ADR-RES ovarian): > 100 µM
- TGI (OVCAR-3 ovarian): > 62.3 µM
- TGI (OVCAR-4 ovarian): > 100 µM
- TGI (OVCAR-5 ovarian): > 100 µM
- TGI (OVCAR-8 ovarian): > 100 µM
- TGI (PC-3 prostate): > 100 µM
- TGI (RPMI-8226 leukemia): 15.7 µM
- TGI (RXF 393 renal): > 59.5 µM
- TGI (SF-268 CNS): > 100 µM
- TGI (SF-295 CNS): > 100 µM
- TGI (SF-539 CNS): 34.1 µM
- TGI (SK-MEL-2 melanoma): 60.6 µM
- TGI (SK-MEL-28 melanoma): 69.5 µM
- TGI (SK-MEL-5 melanoma): > 45.5 µM
- TGI (SK-OV-3 ovarian): > 100 µM
- TGI (SN12C renal): 45.7 µM
- TGI (SNB-19 CNS): > 100 µM
- TGI (SNB-75 CNS): > 100 µM
- TGI (SR leukemia): 8.88 µM
- TGI (SW-620 colon): > 100 µM
- TGI (T-47D breast): > 100 µM
- TGI (TK-10 renal): 64.1 µM
- TGI (U251 CNS): > 100 µM
- TGI (UACC-257 melanoma): > 100 µM
- TGI (UACC-62 melanoma): 38.8 µM
- TGI (UO-31 renal): > 87.4 µM

SMILES: NC(N)=NS(=O)(=O)c1ccc(NC(=O)c2cccc3c(NNc4ccc(C(=O)O)cc4)c4ccccc4nc23)cc1
- TGI (786-0 renal): > 100 µM
- TGI (A498 renal): 98.2 µM
- TGI (A549 NSCLC): > 100 µM
- TGI (ACHN renal): > 100 µM
- TGI (BT-549 breast): > 100 µM
- TGI (CAKI-1 renal): > 100 µM
- TGI (CCRF-CEM leukemia): 85.2 µM
- TGI (COLO 205 colon): > 100 µM
- TGI (DU-145 prostate): > 100 µM
- TGI (EKVX NSCLC): > 100 µM
- TGI (HCC-2998 colon): > 100 µM
- TGI (HCT-116 colon): > 100 µM
- TGI (HCT-15 colon): > 100 µM
- TGI (HL-60(TB) leukemia): > 100 µM
- TGI (HOP-62 NSCLC): > 100 µM
- TGI (HOP-92 NSCLC): > 100 µM
- TGI (HS 578T breast): > 100 µM
- TGI (HT29 colon): > 100 µM
- TGI (IGROV1 ovarian): > 100 µM
- TGI (K-562 leukemia): > 100 µM
- TGI (KM12 colon): > 100 µM
- TGI (LOX IMVI melanoma): > 100 µM
- TGI (M14 melanoma): > 100 µM
- TGI (MALME-3M melanoma): > 100 µM
- TGI (MCF7 breast): > 100 µM
- TGI (MDA-MB-231 breast): > 100 µM
- TGI (MDA-MB-435): > 100 µM
- TGI (MDA-N): > 100 µM
- TGI (MOLT-4 leukemia): > 100 µM
- TGI (NCI-H226 lung): > 100 µM
- TGI (NCI-H23 lung): > 100 µM
- TGI (NCI-H460 lung): > 100 µM
- TGI (NCI-H522 lung): > 100 µM
- TGI (NCI/ADR-RES ovarian): > 100 µM
- TGI (OVCAR-3 ovarian): > 100 µM
- TGI (OVCAR-4 ovarian): > 100 µM
- TGI (OVCAR-5 ovarian): > 100 µM
- TGI (OVCAR-8 ovarian): > 100 µM
- TGI (PC-3 prostate): > 100 µM
- TGI (RPMI-8226 leukemia): > 100 µM
- TGI (RXF 393 renal): > 100 µM
- TGI (SF-268 CNS): > 100 µM
- TGI (SF-295 CNS): > 100 µM
- TGI (SF-539 CNS): > 100 µM
- TGI (SK-MEL-2 melanoma): 95.7 µM
- TGI (SK-MEL-28 melanoma): > 100 µM
- TGI (SK-MEL-5 melanoma): > 100 µM
- TGI (SK-OV-3 ovarian): > 100 µM
- TGI (SN12C renal): > 100 µM
- TGI (SNB-19 CNS): > 100 µM
- TGI (SNB-75 CNS): > 100 µM
- TGI (SR leukemia): > 100 µM
- TGI (SW-620 colon): > 100 µM
- TGI (T-47D breast): > 100 µM
- TGI (TK-10 renal): > 100 µM
- TGI (U251 CNS): > 100 µM
- TGI (UACC-257 melanoma): > 100 µM
- TGI (UACC-62 melanoma): > 100 µM
- TGI (UO-31 renal): > 100 µM
